5 compounds from ChEMBL document CHEMBL4028801, “A multifactorial approach to hepatobiliary transporter assessment enables improved therapeutic compound development” (Toxicol Sci, 2013) can be followed below.

Data set [1] concerns the target ATP-binding cassette sub-family C member 2 (Homo sapiens, UniProt Q92887). Briefly: Inhibition of human MRP2 overexpressed in Sf9 cell membrane vesicles assessed as uptake of [3H]-estradiol-17beta-D-glucuronide in presence of ATP and GSH measured after 20 mins by membrane vesicle transport assay.
Data set [2] addresses ATP-binding cassette sub-family C member 3 (Homo sapiens, UniProt O15438). The experiment in a line: Inhibition of human MRP3 overexpressed in Sf9 insect cell membrane vesicles assessed as uptake of [3H]-estradiol-17beta-D-glucuronide in presence of ATP and GSH measured after 10 mins by membrane vesicle transport assay. Type of data set: ADME, cell-based.
Data set [3] can be described thus: AUC in human at 20 to 100 mg, po QD or 60 mg, po BID after 12 hrs. It counts as ADME, organism-based. The conditions noted are these: in vivo.
Another data set deals with Bile salt export pump (Homo sapiens, UniProt O95342). Briefly: Inhibition of human BSEP overexpressed in Sf9 cell membrane vesicles assessed as uptake of [3H]-taurocholate in presence of ATP measured after 15 to 20 mins by membrane vesicle transport assay. Type of data set: ADME, cell-based.
Data set [4] addresses T1, ATP-binding cassette sub-family C member 4 (Homo sapiens, UniProt O15439).
T1 sequence (O15439 whole entry): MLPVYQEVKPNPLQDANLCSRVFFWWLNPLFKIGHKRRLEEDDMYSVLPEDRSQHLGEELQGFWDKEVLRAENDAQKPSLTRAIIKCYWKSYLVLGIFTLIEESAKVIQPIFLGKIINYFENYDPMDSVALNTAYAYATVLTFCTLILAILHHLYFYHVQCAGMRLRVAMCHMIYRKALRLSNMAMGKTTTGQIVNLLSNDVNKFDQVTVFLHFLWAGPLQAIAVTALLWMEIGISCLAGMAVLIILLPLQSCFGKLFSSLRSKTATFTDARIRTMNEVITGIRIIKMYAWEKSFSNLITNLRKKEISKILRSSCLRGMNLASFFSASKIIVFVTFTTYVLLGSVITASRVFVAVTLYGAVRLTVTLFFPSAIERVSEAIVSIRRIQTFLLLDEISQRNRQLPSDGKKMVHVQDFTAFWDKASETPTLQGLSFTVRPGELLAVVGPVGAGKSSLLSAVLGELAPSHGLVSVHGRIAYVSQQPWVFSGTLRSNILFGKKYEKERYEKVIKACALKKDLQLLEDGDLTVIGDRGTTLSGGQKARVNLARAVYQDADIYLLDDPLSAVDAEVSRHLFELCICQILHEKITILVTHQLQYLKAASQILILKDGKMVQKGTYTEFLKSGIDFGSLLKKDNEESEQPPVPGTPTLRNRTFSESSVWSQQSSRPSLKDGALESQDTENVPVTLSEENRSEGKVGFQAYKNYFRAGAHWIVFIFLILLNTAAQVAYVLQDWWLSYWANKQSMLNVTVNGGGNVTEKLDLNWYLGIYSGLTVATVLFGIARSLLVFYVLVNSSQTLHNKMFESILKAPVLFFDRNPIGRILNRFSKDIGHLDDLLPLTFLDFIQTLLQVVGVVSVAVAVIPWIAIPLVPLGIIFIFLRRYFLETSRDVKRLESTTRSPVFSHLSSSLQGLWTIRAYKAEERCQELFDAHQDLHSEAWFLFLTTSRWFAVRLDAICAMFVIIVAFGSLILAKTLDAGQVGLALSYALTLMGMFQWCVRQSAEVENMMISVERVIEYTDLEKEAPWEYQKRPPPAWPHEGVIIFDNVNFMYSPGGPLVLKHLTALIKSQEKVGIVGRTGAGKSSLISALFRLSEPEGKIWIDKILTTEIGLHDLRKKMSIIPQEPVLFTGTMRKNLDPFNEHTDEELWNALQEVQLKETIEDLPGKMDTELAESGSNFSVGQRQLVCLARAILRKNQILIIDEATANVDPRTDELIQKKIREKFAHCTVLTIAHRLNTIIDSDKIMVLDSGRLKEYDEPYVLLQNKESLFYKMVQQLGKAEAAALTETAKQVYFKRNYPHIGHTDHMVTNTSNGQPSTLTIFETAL
The experiment in a line: Inhibition of human MRP4 overexpressed in Sf9 cell membrane vesicles assessed as uptake of [3H]-estradiol-17beta-D-glucuronide in presence of ATP and GSH measured after 20 mins by membrane vesicle transport assay. It counts as ADME, cell-based.

The nature of data set [5]: Drug concentration at steady state in human at 20 to 100 mg, po QD or 60 mg, po BID after 12 hrs. It counts as ADME, organism-based. The conditions noted are these: in vivo, read-out: Css.
Data set [6] in a line: Ratio of drug concentration at steady state in human at 20 to 100 mg, po QD or 60 mg, po BID after 12 hrs to IC50 for human BSEP overexpressed in Sf9 insect cells. Type of data set: ADME, organism-based. The settings on record: in vivo.
The nature of data set [7]: Ratio of drug concentration at steady state in human at 20 to 40 mg, po QD after 24 hrs to IC50 for human MRP4 overexpressed in Sf9 insect cells. It counts as ADME, organism-based. The conditions noted are these: in vivo.
A short description of data set [8]: Ratio of drug concentration at steady state in human at 20 to 40 mg, po QD after 24 hrs to IC50 for human BSEP overexpressed in Sf9 insect cells. It counts as ADME, organism-based. The conditions noted are these: in vivo.
Data set [9] is described as follows: Ratio of drug concentration at steady state in human at 20 to 40 mg, po QD after 24 hrs to IC50 for human MRP3 overexpressed in Sf9 insect cells. Type of data set: ADME, organism-based. The settings on record: in vivo.
Data set [10] can be described thus: AUC in human at 10 to 20 mg, po QID after 6 hrs. It counts as ADME, organism-based. The settings on record: in vivo.
Data set [11] in a line: Drug concentration at steady state in human at 10 to 20 mg, po QID after 6 hrs. It counts as ADME, organism-based. The settings on record: in vivo, read-out: Css.
A short description of data set [12]: Ratio of drug concentration at steady state in human at 10 to 20 mg, po QID after 6 hrs to IC50 for human BSEP overexpressed in Sf9 insect cells. Type of data set: ADME, organism-based. The settings on record: in vivo.
Data set [13] in a line: Drug concentration at steady state in human at 15 to 120 mg, po QD after 24 hrs. Type of data set: ADME, organism-based. The settings on record: in vivo, read-out: Css.
The nature of data set [14]: Ratio of drug concentration at steady state in human at 15 to 120 mg, po QD after 24 hrs to IC50 for human MRP4 overexpressed in Sf9 insect cells. It counts as ADME, organism-based. The settings on record: in vivo.
Data set [15] in a line: AUC in human at 15 to 120 mg, po QD after 24 hrs. It counts as ADME, organism-based. The settings on record: in vivo.
Data set [16] in a line: Ratio of drug concentration at steady state in human at 15 to 120 mg, po QD after 24 hrs to IC50 for human BSEP overexpressed in Sf9 insect cells. Type of data set: ADME, organism-based. The conditions noted are these: in vivo.
Data set [17] can be described thus: Ratio of drug concentration at steady state in human at 15 to 120 mg, po QD after 24 hrs to IC50 for human MRP3 overexpressed in Sf9 insect cells. The settings on record: in vivo. It counts as ADME, organism-based.
A short description of data set [18]: AUC in human at 0.5 to 2 mg/kg, po QD after 24 hrs. It counts as ADME, organism-based. The settings on record: in vivo.
Data set [19] in a line: Ratio of drug concentration at steady state in human at 0.5 to 2 mg/kg, po QD after 24 hrs to IC50 for human BSEP overexpressed in Sf9 insect cells. The settings on record: in vivo. It counts as ADME, organism-based.
The nature of data set [20]: Drug concentration at steady state in human at 0.5 to 2 mg/kg, po QD after 24 hrs. Type of data set: ADME, organism-based. The settings on record: in vivo, read-out: Css.

Chain of ATP-binding cassette sub-family C member 2 (Q92887 whole entry): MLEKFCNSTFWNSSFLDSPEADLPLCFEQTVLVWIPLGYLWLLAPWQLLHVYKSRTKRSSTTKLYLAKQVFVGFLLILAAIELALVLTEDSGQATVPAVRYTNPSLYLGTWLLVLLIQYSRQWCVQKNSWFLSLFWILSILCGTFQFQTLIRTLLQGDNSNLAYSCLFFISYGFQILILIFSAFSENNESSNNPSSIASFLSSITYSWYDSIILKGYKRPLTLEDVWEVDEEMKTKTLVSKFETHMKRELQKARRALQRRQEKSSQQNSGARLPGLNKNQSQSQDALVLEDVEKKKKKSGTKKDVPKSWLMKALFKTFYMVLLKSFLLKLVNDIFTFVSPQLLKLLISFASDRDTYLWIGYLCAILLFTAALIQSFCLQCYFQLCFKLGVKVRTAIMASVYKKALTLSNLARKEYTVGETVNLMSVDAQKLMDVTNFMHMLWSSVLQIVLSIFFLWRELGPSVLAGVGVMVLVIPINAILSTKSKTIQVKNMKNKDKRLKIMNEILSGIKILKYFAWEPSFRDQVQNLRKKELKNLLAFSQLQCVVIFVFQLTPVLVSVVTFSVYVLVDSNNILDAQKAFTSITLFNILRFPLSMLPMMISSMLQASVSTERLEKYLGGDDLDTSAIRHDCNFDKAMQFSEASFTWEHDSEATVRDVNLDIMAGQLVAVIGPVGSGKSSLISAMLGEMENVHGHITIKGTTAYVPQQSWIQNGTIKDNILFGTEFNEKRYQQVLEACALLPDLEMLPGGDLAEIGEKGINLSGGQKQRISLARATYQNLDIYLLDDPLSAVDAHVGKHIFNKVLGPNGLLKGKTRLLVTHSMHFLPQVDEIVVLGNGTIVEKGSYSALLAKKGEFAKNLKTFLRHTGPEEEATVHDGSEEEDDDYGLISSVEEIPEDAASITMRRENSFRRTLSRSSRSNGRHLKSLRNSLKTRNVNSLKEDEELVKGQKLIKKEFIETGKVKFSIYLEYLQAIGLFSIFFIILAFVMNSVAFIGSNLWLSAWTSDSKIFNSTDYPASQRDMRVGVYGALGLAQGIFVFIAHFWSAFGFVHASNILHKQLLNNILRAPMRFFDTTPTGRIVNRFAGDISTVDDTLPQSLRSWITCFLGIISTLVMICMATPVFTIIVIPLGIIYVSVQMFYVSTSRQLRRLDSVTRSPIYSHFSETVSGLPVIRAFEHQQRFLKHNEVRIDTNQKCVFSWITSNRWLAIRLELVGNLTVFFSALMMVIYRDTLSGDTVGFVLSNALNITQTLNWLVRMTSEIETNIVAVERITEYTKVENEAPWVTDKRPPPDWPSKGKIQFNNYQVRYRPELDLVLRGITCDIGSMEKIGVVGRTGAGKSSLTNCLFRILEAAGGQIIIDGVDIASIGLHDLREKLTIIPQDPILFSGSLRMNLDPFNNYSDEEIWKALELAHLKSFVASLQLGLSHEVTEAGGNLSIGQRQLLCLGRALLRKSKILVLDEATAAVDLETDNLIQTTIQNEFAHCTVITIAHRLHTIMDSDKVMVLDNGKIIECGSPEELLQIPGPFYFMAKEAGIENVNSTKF
Chain of ATP-binding cassette sub-family C member 3 (O15438 whole entry): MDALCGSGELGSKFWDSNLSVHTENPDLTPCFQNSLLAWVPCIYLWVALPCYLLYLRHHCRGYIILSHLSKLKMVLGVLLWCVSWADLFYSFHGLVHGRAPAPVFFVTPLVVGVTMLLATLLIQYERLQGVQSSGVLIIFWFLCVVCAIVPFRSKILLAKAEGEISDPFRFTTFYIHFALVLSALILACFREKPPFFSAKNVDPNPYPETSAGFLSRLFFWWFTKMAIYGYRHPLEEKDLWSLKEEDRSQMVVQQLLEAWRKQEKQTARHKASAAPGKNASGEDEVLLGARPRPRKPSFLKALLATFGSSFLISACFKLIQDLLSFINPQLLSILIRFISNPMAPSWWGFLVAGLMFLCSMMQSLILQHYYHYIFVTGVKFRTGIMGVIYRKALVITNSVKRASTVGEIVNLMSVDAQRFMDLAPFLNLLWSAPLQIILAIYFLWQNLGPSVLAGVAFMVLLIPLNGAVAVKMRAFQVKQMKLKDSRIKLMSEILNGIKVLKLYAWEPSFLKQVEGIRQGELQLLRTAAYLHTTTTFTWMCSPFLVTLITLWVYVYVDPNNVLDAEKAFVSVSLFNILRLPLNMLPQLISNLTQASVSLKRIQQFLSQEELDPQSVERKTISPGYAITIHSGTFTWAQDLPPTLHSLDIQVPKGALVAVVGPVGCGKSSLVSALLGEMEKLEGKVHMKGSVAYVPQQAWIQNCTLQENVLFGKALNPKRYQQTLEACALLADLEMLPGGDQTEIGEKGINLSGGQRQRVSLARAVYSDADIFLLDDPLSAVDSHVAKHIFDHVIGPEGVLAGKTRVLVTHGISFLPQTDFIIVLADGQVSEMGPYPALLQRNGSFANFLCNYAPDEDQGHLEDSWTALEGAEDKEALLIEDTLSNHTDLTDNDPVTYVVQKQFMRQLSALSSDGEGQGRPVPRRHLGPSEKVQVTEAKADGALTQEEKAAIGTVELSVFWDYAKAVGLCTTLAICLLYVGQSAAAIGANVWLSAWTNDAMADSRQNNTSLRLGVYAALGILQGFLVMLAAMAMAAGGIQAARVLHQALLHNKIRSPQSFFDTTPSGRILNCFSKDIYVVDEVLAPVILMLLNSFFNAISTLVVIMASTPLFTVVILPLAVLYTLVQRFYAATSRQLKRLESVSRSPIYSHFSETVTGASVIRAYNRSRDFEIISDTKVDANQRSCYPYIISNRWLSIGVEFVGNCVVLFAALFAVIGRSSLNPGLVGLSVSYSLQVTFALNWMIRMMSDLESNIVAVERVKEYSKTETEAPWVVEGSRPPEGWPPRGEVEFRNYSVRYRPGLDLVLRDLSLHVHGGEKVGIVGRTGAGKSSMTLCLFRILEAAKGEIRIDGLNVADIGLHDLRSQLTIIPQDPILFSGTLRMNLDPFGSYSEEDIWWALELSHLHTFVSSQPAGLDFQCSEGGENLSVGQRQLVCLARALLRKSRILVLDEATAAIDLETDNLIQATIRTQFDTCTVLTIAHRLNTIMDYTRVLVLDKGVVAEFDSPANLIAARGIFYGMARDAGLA
Chain of Bile salt export pump (O95342 whole entry): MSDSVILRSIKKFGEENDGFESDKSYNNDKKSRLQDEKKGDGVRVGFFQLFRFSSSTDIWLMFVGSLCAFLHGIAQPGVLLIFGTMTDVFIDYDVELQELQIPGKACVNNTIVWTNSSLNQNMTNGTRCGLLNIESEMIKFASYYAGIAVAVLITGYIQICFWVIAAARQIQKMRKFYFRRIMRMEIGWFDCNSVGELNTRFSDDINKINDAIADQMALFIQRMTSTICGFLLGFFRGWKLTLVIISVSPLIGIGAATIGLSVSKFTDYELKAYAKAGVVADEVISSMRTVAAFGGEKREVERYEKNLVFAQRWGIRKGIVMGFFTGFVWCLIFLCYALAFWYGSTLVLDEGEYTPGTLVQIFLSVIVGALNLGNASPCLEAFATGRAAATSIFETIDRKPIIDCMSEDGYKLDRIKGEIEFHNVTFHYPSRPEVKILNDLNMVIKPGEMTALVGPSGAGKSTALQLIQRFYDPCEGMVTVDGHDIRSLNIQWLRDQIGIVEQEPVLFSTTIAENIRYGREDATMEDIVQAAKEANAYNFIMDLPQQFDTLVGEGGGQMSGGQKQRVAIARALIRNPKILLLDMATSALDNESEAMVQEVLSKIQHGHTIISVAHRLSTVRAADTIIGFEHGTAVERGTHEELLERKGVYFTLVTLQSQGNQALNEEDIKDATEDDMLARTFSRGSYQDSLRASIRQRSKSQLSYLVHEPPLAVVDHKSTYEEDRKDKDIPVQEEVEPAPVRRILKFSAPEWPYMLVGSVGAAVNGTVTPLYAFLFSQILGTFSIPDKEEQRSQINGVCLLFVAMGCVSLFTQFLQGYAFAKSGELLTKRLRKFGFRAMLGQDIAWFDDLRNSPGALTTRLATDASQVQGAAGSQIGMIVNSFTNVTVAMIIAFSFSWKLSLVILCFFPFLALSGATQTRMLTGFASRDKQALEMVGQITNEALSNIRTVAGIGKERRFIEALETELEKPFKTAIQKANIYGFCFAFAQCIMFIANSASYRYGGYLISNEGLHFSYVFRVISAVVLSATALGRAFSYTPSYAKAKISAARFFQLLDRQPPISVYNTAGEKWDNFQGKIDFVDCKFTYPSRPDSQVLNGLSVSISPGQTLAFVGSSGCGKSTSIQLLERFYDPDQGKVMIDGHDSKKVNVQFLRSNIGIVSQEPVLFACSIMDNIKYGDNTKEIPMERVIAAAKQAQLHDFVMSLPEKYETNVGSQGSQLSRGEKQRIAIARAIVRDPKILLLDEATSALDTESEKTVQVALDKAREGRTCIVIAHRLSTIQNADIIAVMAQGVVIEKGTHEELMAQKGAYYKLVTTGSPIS

Consider `COCCCOc1ccnc(C[S+]([O-])c2nc3ccccc3[n-]2)c1C.[Na+]` (stereo not given) [RABEPRAZOLE SODIUM], for which the IC50 – broadly, the concentration that gives 50% inhibition – in data set [1] was over 133 µM; in data set [2], over 133 µM; at Bile salt export pump, 33.9 µM; in data set [4] it was over 133 µM. The exposure (AUC) (commonly the area under the concentration-time curve, a measure of exposure) at 12 h in data set [3] was 14.5 µM·h. In addition, the concentration at 12 h in data set [5] was determined as 1210 nM. Besides, the Ratio in data set [6] came to 0.036.
With `CCCc1nc(C(C)(C)O)c(C(=O)OCc2oc(=O)oc2C)n1Cc1ccc(-c2ccccc2-c2nnn[nH]2)cc1` [OLMESARTAN MEDOXOMIL], the concentration for half-maximal inhibition (IC50) came out at 2 µM in [2], 4.73 µM on Bile salt export pump and 28.5 µM in data set [4]. Besides, the Ratio in data set [7] is on record as 0.014; in [8] it was 0.081; in data set [9], 0.192.
Consider `COc1cc(N)c(Cl)cc1C(=O)NC1CCN(CCCOc2ccc(F)cc2)CC1OC.O` (stereo not given) [CISAPRIDE MONOHYDRATE], for which the IC50 in data set [1] is over 133 µM; in data set [2], over 133 µM; on Bile salt export pump it was 22 µM; in data set [4], over 133 µM. The AUC at 6 h in data set [10] stood at 4.78 µM·h. Further, the concentration at 6 h in data set [11] was found to be 797 nM. Further, the Ratio in data set [12] was 0.036.
Regarding `COc1ccc2c(c1)C(=O)N(CCc1ccc(S(=O)(=O)NC(=O)NC3CCCCC3)cc1)C(=O)C2(C)C` [GLIQUIDONE], the IC50 in data set [2] worked out at 23.9 µM; on Bile salt export pump, 11.6 µM; in data set [4], 6.3 µM. For the same compound, the concentration at 24 h in data set [13] is 403 nM. Moreover, the Ratio in data set [14] is 0.064; in [16], 0.035; in [17] it was 0.017. The compound also came in with an AUC at 24 h in data set [15] of 9.67 µM·h.
For `CC1=C(/C=C/C(C)=C/C=C/C(C)=C\C(=O)O)C(C)(C)CCC1` [ISOTRETINOIN], the IC50 is over 133 µM in [1], over 133 µM in data set [2], 37.1 µM at Bile salt export pump and over 133 µM in data set [4]. The AUC at 24 h in data set [18] came to 33.3 µM·h. Moreover, the Ratio in data set [19] was 0.037. In addition, the concentration at 24 h in [20] stood at 1390 nM.
